Laboratory results as given in the OligoGym collection.
HELM strings list units from the 5' end as sugar, base in round brackets, then linkage (d deoxyribose, r ribose, m 2'-O-methyl, p phosphodiester). Strings are as the collection lists them; they lack the last nucleoside at the 3' end of the tested compound. [moe] = 2'-O-(2-methoxyethyl) (MOE); [sp] = phosphorothioate linkage; [m5C] = 5-methylcytosine

target: ATXN2; test: mouse, dose not given; conditions: ASO

| Substance | 3 h FOB score [score 0-7] |
| --- | --- |
| RNA1{[moe](A)[sp].[moe](A)p.[moe](A)p.[moe](G)p.[moe](A)p.d([m5C])[sp].d(T)[sp].d(T)[sp].d(T)[sp].d(G)[sp].d(A)[sp].d(A)[sp].d(A)[sp].d(T)[sp].d([m5C])[sp].[moe](T)p.[moe]([m5C])p.[moe](A)[sp].[moe]([m5C])}$$$$ (last 3' nucleoside missing) | 1 |
| RNA1{[moe](A)[sp].[moe](A)p.[moe](G)p.[moe](A)p.[moe](A)p.d(T)[sp].d([m5C])[sp].d([m5C])[sp].d(T)[sp].d(T)[sp].d(A)[sp].d(G)[sp].d([m5C])[sp].d(A)[sp].d([m5C])[sp].[moe](T)p.[moe](T)p.[moe](G)[sp].[moe](G)}$$$$ (last 3' nucleoside missing) | 6.25 |
| RNA1{[moe](A)[sp].[moe](A)p.[moe](G)p.[moe](A)p.[moe](T)p.d(G)[sp].d(G)[sp].d(G)[sp].d(T)[sp].d(T)[sp].d(T)[sp].d(T)[sp].d(T)[sp].d(T)[sp].d(T)[sp].[moe](G)p.[moe]([m5C])p.[moe](T)[sp].[moe](T)}$$$$ (last 3' nucleoside missing) | 4 |
| RNA1{[moe](A)[sp].[moe](A)p.[moe](G)p.[moe](A)p.[moe]([m5C])p.d(T)[sp].d(T)[sp].d(T)[sp].d(T)[sp].d(T)[sp].d(A)[sp].d(T)[sp].d(G)[sp].d(T)[sp].d(T)[sp].[moe](G)p.[moe]([m5C])p.[moe](T)[sp].[moe]([m5C])}$$$$ (last 3' nucleoside missing) | 3.5 |
| RNA1{[moe](A)[sp].[moe](A)p.[moe](G)p.[moe](T)p.[moe](A)p.d(G)[sp].d(T)[sp].d(G)[sp].d(T)[sp].d(T)[sp].d(T)[sp].d(G)[sp].d(G)[sp].d(G)[sp].d(A)[sp].[moe](T)p.[moe](G)p.[moe]([m5C])[sp].[moe](T)}$$$$ (last 3' nucleoside missing) | 6 |
| RNA1{[moe](A)[sp].[moe](A)p.[moe](G)p.[moe](T)p.[moe](T)p.d([m5C])[sp].d([m5C])[sp].d([m5C])[sp].d(A)[sp].d(T)[sp].d(T)[sp].d(G)[sp].d([m5C])[sp].d(A)[sp].d(T)[sp].[moe](T)p.[moe](G)p.[moe](T)[sp].[moe](T)}$$$$ (last 3' nucleoside missing) | 6 |
| RNA1{[moe](A)[sp].[moe](A)p.[moe](G)p.[moe](T)p.[moe]([m5C])p.d(T)[sp].d(T)[sp].d(G)[sp].d(T)[sp].d(T)[sp].d([m5C])[sp].d(A)[sp].d(G)[sp].d(T)[sp].d(G)[sp].[moe](T)p.[moe]([m5C])p.[moe]([m5C])[sp].[moe](T)}$$$$ (last 3' nucleoside missing) | 4.5 |
| RNA1{[moe](A)[sp].[moe](A)p.[moe](G)p.[moe]([m5C])p.[moe](T)p.d(T)[sp].d(A)[sp].d(G)[sp].d(A)[sp].d(G)[sp].d(T)[sp].d(T)[sp].d(T)[sp].d(T)[sp].d(T)[sp].[moe](G)p.[moe]([m5C])p.[moe]([m5C])[sp].[moe](T)}$$$$ (last 3' nucleoside missing) | 4 |
| RNA1{[moe](A)[sp].[moe](A)p.[moe](T)p.[moe](A)p.[moe](G)p.d(G)[sp].d(G)[sp].d(T)[sp].d(T)[sp].d(T)[sp].d(T)[sp].d(G)[sp].d(T)[sp].d(T)[sp].d([m5C])[sp].[moe](A)p.[moe](T)p.[moe](G)[sp].[moe]([m5C])}$$$$ (last 3' nucleoside missing) | 3.75 |
| RNA1{[moe](A)[sp].[moe](A)p.[moe](T)p.[moe](A)p.[moe](T)p.d(T)[sp].d([m5C])[sp].d([m5C])[sp].d(A)[sp].d(T)[sp].d(A)[sp].d([m5C])[sp].d(A)[sp].d(G)[sp].d(A)[sp].[moe](T)p.[moe]([m5C])p.[moe](G)[sp].[moe]([m5C])}$$$$ (last 3' nucleoside missing) | 2.5 |
| RNA1{[moe](A)[sp].[moe](A)p.[moe](T)p.[moe](G)p.[moe]([m5C])p.d([m5C])[sp].d(G)[sp].d(T)[sp].d(T)[sp].d(T)[sp].d(T)[sp].d(T)[sp].d(A)[sp].d([m5C])[sp].d(T)[sp].[moe]([m5C])p.[moe](T)p.[moe]([m5C])[sp].[moe](A)}$$$$ (last 3' nucleoside missing) | 0 |
| RNA1{[moe](A)[sp].[moe](A)p.[moe]([m5C])p.[moe](A)p.[moe](G)p.d([m5C])[sp].d(T)[sp].d([m5C])[sp].d(T)[sp].d(G)[sp].d(T)[sp].d(T)[sp].d([m5C])[sp].d(G)[sp].d(A)[sp].[moe](T)p.[moe](G)p.[moe]([m5C])[sp].[moe](A)}$$$$ (last 3' nucleoside missing) | 6 |
| RNA1{[moe](A)[sp].[moe](A)p.[moe]([m5C])p.[moe](G)p.[moe](A)p.d(T)[sp].d(G)[sp].d(A)[sp].d(T)[sp].d([m5C])[sp].d(T)[sp].d(G)[sp].d(G)[sp].d(T)[sp].d(A)[sp].[moe](T)p.[moe]([m5C])p.[moe]([m5C])[sp].[moe](T)}$$$$ (last 3' nucleoside missing) | 7 |
| RNA1{[moe](A)[sp].[moe](A)p.[moe]([m5C])p.[moe](G)p.[moe](G)p.d(A)[sp].d(G)[sp].d(T)[sp].d([m5C])[sp].d(A)[sp].d([m5C])[sp].d(T)[sp].d(G)[sp].d(T)[sp].d(T)[sp].[moe](T)p.[moe](T)p.[moe](T)[sp].[moe]([m5C])}$$$$ (last 3' nucleoside missing) | 5.5 |
| RNA1{[moe](A)[sp].[moe](A)p.[moe]([m5C])p.[moe](T)p.[moe](G)p.d(G)[sp].d(A)[sp].d(T)[sp].d(T)[sp].d([m5C])[sp].d(T)[sp].d(G)[sp].d(T)[sp].d(A)[sp].d([m5C])[sp].[moe](T)p.[moe](T)p.[moe](T)[sp].[moe](T)}$$$$ (last 3' nucleoside missing) | 4.75 |
| RNA1{[moe](A)[sp].[moe](A)p.[moe]([m5C])p.[moe]([m5C])p.[moe](A)p.d(T)[sp].d(G)[sp].d([m5C])[sp].d([m5C])[sp].d(T)[sp].d([m5C])[sp].d(T)[sp].d(T)[sp].d(T)[sp].d(T)[sp].[moe](T)p.[moe](T)p.[moe]([m5C])[sp].[moe](T)}$$$$ (last 3' nucleoside missing) | 0 |
| RNA1{[moe](A)[sp].[moe](A)p.[moe]([m5C])p.[moe]([m5C])p.[moe](A)p.d([m5C])[sp].d(T)[sp].d(G)[sp].d(A)[sp].d(T)[sp].d(T)[sp].d(T)[sp].d(A)[sp].d(T)[sp].d(A)[sp].[moe]([m5C])p.[moe](A)p.[moe]([m5C])[sp].[moe](T)}$$$$ (last 3' nucleoside missing) | 2.5 |
| RNA1{[moe](A)[sp].[moe](G)p.[moe](A)p.[moe](G)p.[moe](T)p.d(T)[sp].d(T)[sp].d(T)[sp].d(T)[sp].d(G)[sp].d([m5C])[sp].d([m5C])[sp].d(T)[sp].d(T)[sp].d([m5C])[sp].[moe]([m5C])p.[moe](A)p.[moe](T)[sp].[moe](T)}$$$$ (last 3' nucleoside missing) | 3 |
| RNA1{[moe](A)[sp].[moe](G)p.[moe](G)p.[moe](G)p.[moe](T)p.d(T)[sp].d(A)[sp].d(A)[sp].d(T)[sp].d(T)[sp].d(A)[sp].d(G)[sp].d(G)[sp].d(A)[sp].d(T)[sp].[moe]([m5C])p.[moe](T)p.[moe](A)[sp].[moe](T)}$$$$ (last 3' nucleoside missing) | 6 |
| RNA1{[moe](A)[sp].[moe](G)p.[moe](G)p.[moe](T)p.[moe](G)p.d(A)[sp].d(T)[sp].d(G)[sp].d(T)[sp].d(T)[sp].d(T)[sp].d([m5C])[sp].d(A)[sp].d(T)[sp].d(T)[sp].[moe](G)p.[moe](G)p.[moe](G)[sp].[moe](T)}$$$$ (last 3' nucleoside missing) | 4.5 |
| RNA1{[moe](A)[sp].[moe](G)p.[moe](G)p.[moe]([m5C])p.[moe](A)p.d(T)[sp].d(A)[sp].d(A)[sp].d(A)[sp].d(T)[sp].d(T)[sp].d(T)[sp].d([m5C])[sp].d(A)[sp].d(T)[sp].[moe]([m5C])p.[moe](T)p.[moe](T)[sp].[moe](A)}$$$$ (last 3' nucleoside missing) | 0 |
| RNA1{[moe](A)[sp].[moe](G)p.[moe](T)p.[moe](A)p.[moe](A)p.d(A)[sp].d(A)[sp].d(G)[sp].d(T)[sp].d(T)[sp].d(T)[sp].d(T)[sp].d(T)[sp].d([m5C])[sp].d([m5C])[sp].[moe]([m5C])p.[moe](T)p.[moe](T)[sp].[moe](A)}$$$$ (last 3' nucleoside missing) | 3.25 |
| RNA1{[moe](A)[sp].[moe](G)p.[moe](T)p.[moe](A)p.[moe](T)p.d([m5C])[sp].d(T)[sp].d([m5C])[sp].d(A)[sp].d(G)[sp].d(T)[sp].d(T)[sp].d(T)[sp].d(T)[sp].d(T)[sp].[moe](T)p.[moe](T)p.[moe](T)[sp].[moe](T)}$$$$ (last 3' nucleoside missing) | 2 |
| RNA1{[moe](A)[sp].[moe](G)p.[moe](T)p.[moe](G)p.[moe](T)p.d(T)[sp].d(T)[sp].d(G)[sp].d(G)[sp].d(G)[sp].d(A)[sp].d(T)[sp].d(G)[sp].d([m5C])[sp].d(T)[sp].[moe](T)p.[moe]([m5C])p.[moe](A)[sp].[moe](G)}$$$$ (last 3' nucleoside missing) | 6.5 |
| RNA1{[moe](A)[sp].[moe](G)p.[moe](T)p.[moe](T)p.[moe]([m5C])p.d(A)[sp].d([m5C])[sp].d([m5C])[sp].d(T)[sp].d(G)[sp].d([m5C])[sp].d(A)[sp].d(T)[sp].d([m5C])[sp].d([m5C])[sp].[moe]([m5C])p.[moe](A)p.[moe](G)[sp].[moe](G)}$$$$ (last 3' nucleoside missing) | 5.5 |
| RNA1{[moe](A)[sp].[moe](G)p.[moe](T)p.[moe]([m5C])p.[moe](A)p.d(T)[sp].d(G)[sp].d([m5C])[sp].d(T)[sp].d(T)[sp].d(A)[sp].d(T)[sp].d(A)[sp].d(A)[sp].d(A)[sp].[moe](G)p.[moe](T)p.[moe]([m5C])[sp].[moe]([m5C])}$$$$ (last 3' nucleoside missing) | 3.5 |
| RNA1{[moe](A)[sp].[moe](G)p.[moe](T)p.[moe]([m5C])p.[moe](T)p.d(T)[sp].d(G)[sp].d(T)[sp].d(T)[sp].d([m5C])[sp].d(A)[sp].d(G)[sp].d(T)[sp].d(G)[sp].d(T)[sp].[moe]([m5C])p.[moe]([m5C])p.[moe](T)[sp].[moe](T)}$$$$ (last 3' nucleoside missing) | 5 |
